Experimental data as given in US20200222391A1, “SOLID PREPARATION OF CARIPRAZINE FOR ORAL ADMINISTRATION” (Richter Gedeon Nyrt., priority 2017, published 2020).
Where a name gives a salt, the structure may show the parent alone. Read-outs that look alike come from different tables or passages of the source.

Assays:
[1] = pH-solubility of cariprazine hydrochloride at 37° C.; type: physicochemical
Source text: Cariprazine salts are very well soluble in acidic environment. However, drugs, which are soluble in acidic environment can be practically insoluble in neutral or basic environment.

[2] = Caco-2 model of drug absorption (permeability); type: in vitro ADME; conditions: human, read-out: permeability directional ratio (PDR)
Experimental: In the Caco-2 model of drug absorption, the permeability coefficients of cariprazine in inward and outward directions were calculated to be 26.4.10-6 cm/sec and 51.2.10-6 cm/sec, respectively (permeability directional ratio (PDR): 1.9) (Artursson P & Karlsson J (1991). “Correlation between oral drug absorption in humans and apparent drug permeability coefficients in human intestinal epithelial (Caco-2) cells”. Biochem Biophys Res Comm 175 (3): 880-5 and internal data).

Row | pH value of best solubility [1] | solubility ([1]; 37 °C, pH 1, simulated gastric fluid, pH 1, read-out: Solubility) [µg/mL] | solubility ([1]; 37 °C, pH 2, simulated gastric fluid, pH 2, read-out: Solubility) [µg/mL] | solubility ([1]; 37 °C, pH 3, aqueous buffer, pH 3, read-out: Solubility) [µg/mL] | solubility ([1]; 37 °C, pH 4, aqueous buffer, pH 4, read-out: Solubility) [µg/mL] | solubility ([1]; 37 °C, pH 5, aqueous buffer, pH 5, read-out: Solubility) [µg/mL] | solubility ([1]; 37 °C, pH 5.5, aqueous buffer, pH 5.5, read-out: Solubility) [µg/mL] | solubility ([1]; 37 °C, pH 6, aqueous buffer, pH 6, read-out: Solubility) [µg/mL] | solubility ([1]; 37 °C, pH 7, aqueous buffer, pH 7, read-out: Solubility) [µg/mL] | solubility ([1]; pH 1, hydrochloride) [µg/mL] | solubility ([1]; pH 7, hydrochloride) [µg/mL] | efflux ratio [2] | SMILES
1 | ~3 | 3260 | 8930 | 11000 | 3230 | 351 | 149 | 18.8 | 1 | 3257.9 | 1.3 | – | CN(C)C(=O)N[C@H]1CC[C@H](CCN2CCN(c3cccc(Cl)c3Cl)CC2)CC1 [cariprazine hydrochloride]
2 | – | – | – | – | – | – | – | – | – | – | – | 1.9 | CN(C)C(=O)N[C@H]1CC[C@H](CCN2CCN(c3cccc(Cl)c3Cl)CC2)CC1 [cariprazine, trans-N-{4-[2-[4-(2,3-dichlorophenyl)-piperazin-1-yl]-ethyl]-cyclohexyl}-N′,N′-dimethylurea]
